Source: US4242325A, “Phosphorotriamides as urease inhibitors” (priority 1979, dated 1980)

What follows are molecules tested against T1, Urease Purified from Proteus mirabilis (Pr-91) (Proteus mirabilis, UniProt P17086) (assay: Inhibition of urease purified from Proteus mirabilis (Pr-91)). Settings: not given.
T1 construct: host or cells: Proteus mirabilis (Pr-91)
Format: biochemical
Source text: The Inhibition of Urease Purified from Proteus mirabilis (Pr-91)
Concentration of Compounds of Formula [drawing 5] for 50% Inhibition of Urease.

T1 sequence (P17086 whole entry): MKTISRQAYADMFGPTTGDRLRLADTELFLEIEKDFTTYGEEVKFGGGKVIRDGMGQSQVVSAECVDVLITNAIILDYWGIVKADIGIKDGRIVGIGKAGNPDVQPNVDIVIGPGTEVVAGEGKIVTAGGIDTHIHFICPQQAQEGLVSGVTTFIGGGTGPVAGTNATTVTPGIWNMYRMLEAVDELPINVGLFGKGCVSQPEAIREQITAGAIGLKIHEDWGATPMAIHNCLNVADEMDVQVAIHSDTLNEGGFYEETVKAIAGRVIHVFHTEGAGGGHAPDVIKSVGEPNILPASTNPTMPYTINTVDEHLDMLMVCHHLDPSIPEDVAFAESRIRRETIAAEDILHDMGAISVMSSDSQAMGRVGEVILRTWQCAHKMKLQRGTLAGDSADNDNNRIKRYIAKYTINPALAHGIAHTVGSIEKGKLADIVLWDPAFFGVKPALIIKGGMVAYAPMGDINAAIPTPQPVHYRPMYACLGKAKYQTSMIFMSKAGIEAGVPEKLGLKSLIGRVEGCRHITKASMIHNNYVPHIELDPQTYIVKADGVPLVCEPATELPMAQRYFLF
T1 sequence (P17088 whole entry, further chain): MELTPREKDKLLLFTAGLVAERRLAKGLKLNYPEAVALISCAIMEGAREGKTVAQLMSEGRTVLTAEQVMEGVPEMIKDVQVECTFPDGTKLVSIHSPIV
T1 sequence (P17087 whole entry, further chain): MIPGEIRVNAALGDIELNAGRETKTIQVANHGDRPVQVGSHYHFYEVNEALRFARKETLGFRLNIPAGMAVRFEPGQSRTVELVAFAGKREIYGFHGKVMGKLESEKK

Going from `Nc1ccc(NP(N)(N)=O)cc1` [4-Aminophenyl, N-(4-Aminophenyl)phosphorotriamide] to `N#Cc1ccc(NP(N)(N)=O)cc1` [4-Cyanophenyl, N-(4-Cyanophenyl)phosphorotriamide], the IC50 rises from 16 µM to 50 µM (3.1-fold).

First: NP(N)(=O)Nc1cccc(C(F)(F)F)c1 [3-Trifluoromethylphenyl, N-[3-(Trifluoromethyl)phenyl]phosphorotriamide]
Second: NP(N)(=O)Nc1ccccc1 [Phenyl]
The IC50 of the first is 3.1-fold higher: 40 µM for the first, 13 µM for the second.

For `NP(N)(=O)Nc1ccc([N+](=O)[O-])cc1` [4-Nitrophenyl, N-(4-Nitrophenyl)phosphorotriamide], the IC50 was 0.35 µM.

Same assay, conditions: urease purified from Proteus mirabilis (Pr-91); read-out: Concentration of compound for 50% inhibition of urease

`NP(N)(N)=O` [H] gave an IC50 of 0.12 µM.
